Assay results: patent US20230293469A1, “NOVEL PHARMACEUTICAL COMPOSITIONS” (NEUROPRO THERAPEUTICS, INC., priority 2020, published 2023)
Several values for one entry are separate records, joined by “and”; a condition that tells them apart may be missing. Identical values can stand only once. Like-named read-outs stand apart in the source and are kept apart here.

What was measured:
Dog Microsomes = experiment: Metabolite screening of NPT-2042 in dog microsomes; format: in vitro ADME; conditions: NPT-2042 10 uM, microsomes 1 mg/mL
Protocol: (§1) Incubation of Test Compound in Microsomes • 1. Compound final concentration: 10 uM. • 2. Microsomes concentration 1 mg/mL. • 3. Incubate for 1 hour, with an NADPH regenerating system. • 4. 0.5 mL of incubation mixture at 0 min and 1 hour, mixed with 0.5 mL of acetonitrile. • 5. Vortex, and centrifuge at 13200 rpm for 10 min. • 6. Supernatant was transferred to a clean vial for LCMS analysis NADPH regenerating system (cofactor; consisting of NADP [0.340 mg/mL], G6P [1.56 mg/mL], and G6PDH [0.4 U/mL] solutions) LC-MS/MS Method: • HPLC Column: Agilent, Polaris 3 […], 150×2.0 mm (S/N: 533819), made in Netherlands. • Guard Column: Agilent, MonoChrom 3 C18 MetaGuard, 10×2.0 mm (S/N: 556145) • Column temperature: 40° C. • Mobile Phase A: 5 mM ammonium format in water (Optima) • Mobile Phase B: acetonitrile (Optima) • Flow rate: 0.2 mL/min • Gradient (Table on right) • MS: Thermo Q Exactive Plus.

[1] = IV bolus PK of NPT-2042 in dog; format: in vivo
Protocol: (§2) Assays were performed to determine absolute bioavailability of NPT2042 in two species: dog and rat. The calculation of absolute bioavailability depends on four inputs: the areas under the curves (AUC) for oral and IV, and the oral and IV doses.
Testing was conducted to determine AUC for an IV dose in dog.
The same two dogs were each dosed 2042 IV at 10 mg/kg.
Table 8 provides Noncompartmental Parameters for NPT-2042 for 10 mg/kg Bolus Dosing of NPT-2042 in Dogs (n=2).

Rat Microsomes = experiment: Metabolite screening of NPT-2042 in rat microsomes; format: in vitro ADME; conditions: NPT-2042 10 uM, microsomes 1 mg/mL
Protocol: as §1

[2] = Oral dose PK of NPT2042 in dog (AUC for absolute bioavailability); format: in vivo
Protocol: as §2
Testing was conducted to determine AUCs for an oral dose in dog.
Two dogs were each dosed 30 mg/kg NPT2042 orally, on two different days.

[3] = Oral dose PK of NPT-2042 in rat; format: in vivo; conditions: in vivo
Protocol: as §2
Testing was conducted to determine AUCs for an oral dose in rat.

[4] = 1 hour, NADPH regenerating system
[5] = NPT-2042, dog, IV bolus 10 mg/kg, animals 1201A, 1501A, Mean, 10 mg/kg
[6] = NPT2042, dog, oral 30 mg/kg, animals D0001, D0601, Mean, 30 mg/kg
[7] = NPT2042, dog, oral 30 mg/kg, animals D0001, D0601, Mean, 30 mg/kg, mean
[8] = dog, in vivo, po, 30 mg/kg, NPT2042, dog, oral 30 mg/kg, animals D0001, D0601, Mean

CCCCNc1cc(C(=O)N(Cc2ccccc2)Cc2ccccc2)cc(S(N)(=O)=O)c1Oc1ccccc1 [NPT-2042, N,N-Dibenzyl 3-Aminosulfonyl-5-butylamino-4-phenoxybenzamide]
Dog Mic (MS Intensity) (Dog Microsomes; [4]): 1.85E+08
Dog Mic (MS Intensity) (Dog Microsomes; T = 0): 3.79E+08
C0 (back-extrapolated concentration) [1, 5]: 5680 ng/mL and 6440 ng/mL
CL (total body clearance) [1, 5]: 19.5 mL/min/kg and 16.2 mL/min/kg
Tmax [1, 5]: 4.98 min
Vz (volume of distribution) [1, 5]: 6.44 L/kg and 6.54 L/kg
t½ (terminal-phase half-life) [1, 5]: 3.82 h and 4.67 h
Plasma NPT-2042 concentrations (in words) ([1]; dog, IV bolus 10 mg/kg): high and still quantifiable at 24 hours after dosing
Diuresis ([1]; dog, IV bolus 10 mg/kg NPT-2042): lack of diuresis
Decay profile after bolus dosing ([1]; dog, IV bolus 10 mg/kg, log-linear plots): multi-exponential decay
AUC(0-inf) ([1]; dog, plasma, iv, 10 mg/kg, NPT-2042, dog, IV bolus 10 mg/kg, animals 1201A, 1501A, Mean): 8560 ng·h/mL
C0 ([1]; dog, plasma, iv, 10 mg/kg, NPT-2042, dog, IV bolus 10 mg/kg, animals 1201A, 1501A, Mean, read-out: C0 (back-extrapolated concentration)): 6060 ng/mL
clearance ([1]; dog, plasma, iv, 10 mg/kg, NPT-2042, dog, IV bolus 10 mg/kg, animals 1201A, 1501A, Mean, read-out: CL (total body clearance) (converted)): 17.8 mL/min/kg
Cmax ([1]; dog, plasma, iv, 10 mg/kg, NPT-2042, dog, IV bolus 10 mg/kg, animals 1201A, 1501A, Mean, read-out: Cmax): 5210 ng/mL
Tmax ([1]; dog, plasma, iv, 10 mg/kg, NPT-2042, dog, IV bolus 10 mg/kg, animals 1201A, 1501A, Mean, read-out: Tmax): 4.8 min
Vd ([1]; dog, plasma, iv, 10 mg/kg, NPT-2042, dog, IV bolus 10 mg/kg, animals 1201A, 1501A, Mean, read-out: Vz (volume of distribution)): 6.49 L/kg
half-life ([1]; dog, plasma, iv, 10 mg/kg, NPT-2042, dog, IV bolus 10 mg/kg, animals 1201A, 1501A, Mean, read-out: t½ (terminal-phase half-life) (converted)): 4.25 h
concentration at 0.08 h ([1]; dog, plasma, iv, 10 mg/kg, dog, IV bolus 10 mg/kg, animals 1201A, 1501A, Mean, read-out: Plasma NPT-2042 concentration, Time 0.08 h): 5560 ng/mL
concentration at 1 h ([1]; dog, plasma, iv, 10 mg/kg, dog, IV bolus 10 mg/kg, animals 1201A, 1501A, Mean, read-out: Plasma NPT-2042 concentration, Time 1.00 h): 2240 ng/mL
concentration at 2 h ([1]; dog, plasma, iv, 10 mg/kg, dog, IV bolus 10 mg/kg, animals 1201A, 1501A, Mean, read-out: Plasma NPT-2042 concentration, Time 2.00 h): 1230 ng/mL
concentration at 4 h ([1]; dog, plasma, iv, 10 mg/kg, dog, IV bolus 10 mg/kg, animals 1201A, 1501A, Mean, read-out: Plasma NPT-2042 concentration, Time 4.00 h): 688 ng/mL
concentration at 6 h ([1]; dog, plasma, iv, 10 mg/kg, dog, IV bolus 10 mg/kg, animals 1201A, 1501A, Mean, read-out: Plasma NPT-2042 concentration, Time 6.00 h): 326 ng/mL
concentration at 8 h ([1]; dog, plasma, iv, 10 mg/kg, dog, IV bolus 10 mg/kg, animals 1201A, 1501A, Mean, read-out: Plasma NPT-2042 concentration, Time 8.00 h): 182 ng/mL
CL as fraction of hepatic blood flow ([1]; dog, hepatic blood flow about 1.5 L/h/kg): about ⅔
Rat Mic (MS Intensity) (Rat Microsomes; [4]): 7.73E+07
Rat Mic (MS Intensity) (Rat Microsomes; T = 0): 4.15E+08
AUCinf [2, 6]: 1520 ng·h/mL
AUClast [2, 6]: 1450 ng·h/mL
CL/F [2, 6]: 328 mL/min/kg
Cmax [2, 6]: 153 ng/mL
t½ [2, 6]: 4.72 h
AUCinf [2, 7]: 1440 ng·h/mL
AUClast [2, 7]: 1390 ng·h/mL
CL/F [2, 7]: 347 mL/min/kg
Cmax [2, 7]: 152 ng/mL
t½ [2, 7]: 4.16 h
AUC(0-inf) [2, 8]: 1360 ng·h/mL
AUC(0-t) [2, 8]: 1340 ng·h/mL
CL/F ([2]; dog, in vivo, po, 30 mg/kg, NPT2042, dog, oral 30 mg/kg, animals D0001, D0601, Mean, read-out: CL/F (converted)): 367 mL/min/kg
Cmax ([2]; dog, in vivo, po, 30 mg/kg, NPT2042, dog, oral 30 mg/kg, animals D0001, D0601, Mean, read-out: Cmax): 151 ng/mL
Vd/F ([2]; dog, in vivo, po, 30 mg/kg, NPT2042, dog, oral 30 mg/kg, animals D0001, D0601, Mean, read-out: Vz/F): 115 L/kg
half-life ([2]; dog, in vivo, po, 30 mg/kg, NPT2042, dog, oral 30 mg/kg, animals D0001, D0601, Mean, read-out: t½ (converted)): 3.61 h
Absolute bioavailability (AUCpo/AUCiv)*(Doseiv/Dosepo) ([2]; dog, oral 30 mg/kg vs IV 10 mg/kg, as fraction): 0.0509
Tmax ([2]; in vivo, NPT2042, dog, oral 30 mg/kg, animals D0001, D0601, Mean): 6 h
bioavailability ([2]; in vivo, dog, oral 30 mg/kg vs IV 10 mg/kg): 5.1%
half-life ([3]; NPT-2042, rat, oral 30 mg/kg, read-out: t½ (converted)): 2.61 h
bioavailability ([3]; rat, oral 30 mg/kg vs IV 10 mg/kg, read-out: Fabs (%), absolute bioavailability): 0.34%
